Columns and labels:
Assay type in all cases: functional, cell-based
CHO-K1 = experiment: Compound was tested for its effect on the proliferation of CHO-K1 Chinese hamster ovary cell line.; conditions: Cricetulus griseus
HEL 299 = experiment: Compound was tested for its effect on the proliferation of […] human diploid embryonal lung cell line.
MT4 [1] = experiment: Compound was tested for its effect on the proliferation of MT-4 cells expressing the TAT gene of HTLV-1.; conditions: Homo sapiens
HT-29 = experiment: Compound was tested for its effect on the proliferation of HT-29 human colon adenocarcinoma.
ACHN = experiment: Compound was tested for its effect on the proliferation of ACHN human kidney adenocarcinoma
CCRF-CEM [2] = experiment: Compound was tested for its effect on the proliferation of CCRF-CEM human lymphoblastic T-leukemia cell line
WIL2-NS = experiment: Compound was tested for its effect on the proliferation of WIL-2-NS cell line.; conditions: Homo sapiens
MOLT-4 = experiment: Compound was tested for its effect on the proliferation of MOLT-4 human lymphoblastic T-leukemia cell line.
L1210 = experiment: Compound was tested for its effect on the proliferation of L1210 murine leukemia cell line.; conditions: Mus musculus
CCRF-SB = experiment: Compound was tested for its effect on the proliferation of CCRF-SB human lymphoblastic B-leukemia cell line.
Raji = experiment: Compound was tested for its effect on the proliferation of RAJI burkitt lymphoma cell line.; conditions: Homo sapiens
C8166 = experiment: Compound was tested for its effect on the proliferation of C8166 cells expressing the TAT gene of HTLV-1.; conditions: Homo sapiens
MT4 [3] = experiment: Dose required to achieve 50% protection of MT-4 cells against the cytopathic effect of HIV-1; conditions: Homo sapiens
CCRF-CEM [4] = experiment: Compound was tested for its effect on the proliferation of CCRF-CEM human lymphoblastic T-leukemia cell line.

Row | Structure (SMILES) | IC50 (CHO-K1) [µM] | IC50 (HEL 299) [µM] | IC50 (MT4 [1]) [µM] | IC50 (HT-29) [µM] | IC50 (ACHN) [µM] | IC50 (CCRF-CEM [2]) [µM] | IC50 (WIL2-NS) [µM] | IC50 (MOLT-4) [µM] | IC50 (L1210) [µM] | IC50 (CCRF-SB) [µM] | IC50 (Raji) [µM] | IC50 (C8166) [µM] | EC50 (MT4 [3]) [µM] | IC50 (CCRF-CEM [4]) [µM]
1 | COC(=O)c1csc([C@@H]2O[C@H](CO)[C@@H](O)[C@H]2O)n1 | > 300 | > 300 | > 300 | > 300 | > 300 | > 300 | > 300 | > 300 | > 300 | > 300 | > 300 |  |  | 
2 | COC(=O)c1ncn([C@@H]2O[C@H](CO)[C@@H](O)[C@H]2O)n1 | > 300 | > 300 | > 300 | > 300 | > 300 | > 300 | > 300 | > 300 | > 300 | > 300 | > 300 |  |  | 
3 | Cc1noc(-c2nn([C@@H]3O[C@H](CO)[C@@H](O)[C@H]3O)cc2I)n1 | 8.5 | 7.9 | 2.3 | 4.8 | 6.2 | 2.6 | 3.5 | 3 |  | 2.8 |  |  |  | 
4 | CCCCOC(=O)c1nn([C@@H]2O[C@H](CO)[C@@H](O)[C@H]2O)cc1I | 37 | 40 | 25 | 25 |  | 19 | 23 | 16 |  | 21 | 17 | 15 |  | 
5 | O=C(O)c1nn([C@@H]2O[C@H](CO)[C@@H](O)[C@H]2O)cc1I | > 300 | > 300 | > 300 | > 300 | > 300 | > 300 | > 300 | > 300 | > 300 | > 300 | > 300 | > 300 |  | 
6 | COC(=O)c1nn([C@@H]2O[C@H](CO)[C@@H](O)[C@H]2O)cc1I | 7.9 | 4 | 1.6 | 2.8 | 3.6 | 1.5 | 1.6 | 0.9 | 2.4 | 0.9 | 0.2 | 0.2 |  | 
7 | COC(=O)c1nn([C@@H]2O[C@H](CO)[C@@H](O)[C@H]2O)cc1I.Cc1cn([C@H]2C[C@H](N=[N+]=[N-])[C@@H](CO)O2)c(=O)[nH]c1=O |  |  |  |  |  |  |  |  |  |  |  |  | 0.005 | 
8 | COC(=O)c1nn([C@@H]2O[C@H](CO)[C@@H](O)[C@H]2O)cc1I.OC[C@@H]1CC[C@H](n2cnc3c(O)ncnc32)O1 |  |  |  |  |  |  |  |  |  |  |  |  | 3 | 
9 | C#Cc1cn([C@@H]2O[C@H](CO)[C@@H](O)[C@H]2O)nc1C(N)=O | > 300 | 235 | > 300 | > 300 | 287 | > 300 | > 300 | > 300 | > 300 | > 300 | > 300 | 22 |  | 
10 | NC(=O)c1nn([C@@H]2O[C@H](CO)[C@@H](O)[C@H]2O)cc1I | > 300 | > 300 | 2.1 | > 300 | > 300 |  | > 300 | 9.1 | > 300 | > 300 | > 300 | 4 |  | 2.4
11 | COc1cccc2c1C(=O)c1c(O)c3c(c(O)c1C2=O)C[C@@](O)(C(=O)CO)C[C@@H]3O[C@H]1C[C@H](N)[C@H](O)[C@H](C)O1 [DOXORUBICIN] | 1.2 | 1.7 | 0.05 | 1.1 | 0.7 | 0.08 | 0.2 | 0.05 | 0.9 | 0.05 | 0.1 | 0.05 |  | 
12 | NC(=O)c1ncn([C@@H]2O[C@H](CO)[C@@H](O)[C@H]2O)n1 [RIBAVIRIN] | 50 | 45 | 23 |  | > 100 | 19 | > 100 | 5.7 | 16.6 | > 100 | 56 | > 100 |  | 
13 | Cc1cn([C@H]2C[C@H](N=[N+]=[N-])[C@@H](CO)O2)c(=O)[nH]c1=O [ZIDOVUDINE] |  |  |  |  |  |  |  |  |  |  |  |  | 0.002 | 

From ChEMBL document CHEMBL1151497, “Design, synthesis and antiproliferative activity of methyl 4-Iodo-1--D-ribofuranosyl-pyrazole-3-carboxylate and related compounds” (Bioorg Med Chem Lett, 1996)
